# Laboratory results from PubChem BioAssay AID1259407 (Chemical Carcinogenesis Research Information System (CCRIS), 2018).
# Calls of active or inactive are those of the source. The rule behind the calls is not given here.
# Tested on: CCRIS mutagenicity, Ames/micronucleus/aberration tests
# Assay: CCRIS mutagenicity studies
# [1] = Test System: AMES SALMONELLA TYPHIMURIUM, Strain/Indicator: TA98, Metabolic Activation: NONE, Method: STANDARD PLATE
# [2] = Test System: AMES SALMONELLA TYPHIMURIUM, Strain/Indicator: TA100, Metabolic Activation: NONE, Method: STANDARD PLATE
# [3] = Test System: AMES SALMONELLA TYPHIMURIUM, Strain/Indicator: TA100, Metabolic Activation: RAT, LIVER, S-9, AROCLOR 1254, Method: STANDARD PLATE
# [4] = Test System: AMES SALMONELLA TYPHIMURIUM, Strain/Indicator: TA1537, Metabolic Activation: NONE, Method: PREINCUBATION
# [5] = Test System: AMES SALMONELLA TYPHIMURIUM, Strain/Indicator: TA98, Metabolic Activation: NONE, Method: PREINCUBATION
smiles,measurement,setting,value
O=C1c2cccc(O)c2C(=O)c2c(O)cccc21,mutagenic call,[1],inactive; negative
same,mutagenic call,"Test System: AMES SALMONELLA TYPHIMURIUM, Strain/Indicator: TA98, Metabolic Activation: RAT, LIVER, S-9, AROCLOR 1254, Method: STANDARD PLATE",inactive; negative
same,mutagenic call,[2],inactive; negative
same,mutagenic call,[3],inactive; negative
same,mutagenic call,"Test System: AMES SALMONELLA TYPHIMURIUM, Strain/Indicator: TA102, Metabolic Activation: NONE, Method: PREINCUBATION",active; positive
same,mutagenic call,"Test System: AMES SALMONELLA TYPHIMURIUM, Strain/Indicator: TA102, Metabolic Activation: NONE, Method: STANDARD PLATE",inactive; negative
same,mutagenic call,"Test System: AMES SALMONELLA TYPHIMURIUM, Strain/Indicator: TA102, Metabolic Activation: RAT LIVER S-9, AROCLOR 1254, Method: STANDARD PLATE",active; positive
same,mutagenic call,"Test System: AMES SALMONELLA TYPHIMURIUM, Strain/Indicator: TA102, Metabolic Activation: RAT, LIVER, S-9, AROCLOR 1254, Method: STANDARD PLATE",active; positive
same,mutagenic call,"Test System: AMES SALMONELLA TYPHIMURIUM, Strain/Indicator: TA102, Metabolic Activation: RAT, LIVER, S-9, PHENOBARBITONE AND BETA-NAPHTHOFLAVONE, Method: STANDARD PLATE",active; positive
same,mutagenic call,"Test System: AMES SALMONELLA TYPHIMURIUM, Strain/Indicator: TA102, Metabolic Activation: RAT, LIVER, S-9, Method: PREINCUBATION",active; positive
same,mutagenic call,"Test System: AMES SALMONELLA TYPHIMURIUM, Strain/Indicator: TA102, Metabolic Activation: S-9, Method: STANDARD PLATE",active; positive
same,mutagenic call,"Test System: AMES SALMONELLA TYPHIMURIUM, Strain/Indicator: TA1535, Metabolic Activation: NONE, Method: STANDARD PLATE",inactive; negative
same,mutagenic call,"Test System: AMES SALMONELLA TYPHIMURIUM, Strain/Indicator: TA1535, Metabolic Activation: RAT, LIVER, S-9, AROCLOR 1254, Method: STANDARD PLATE",inactive; negative
same,mutagenic call,[4],active; positive
same,mutagenic call,"Test System: AMES SALMONELLA TYPHIMURIUM, Strain/Indicator: TA1537, Metabolic Activation: NONE, Method: STANDARD PLATE",active; positive
same,mutagenic call,"Test System: AMES SALMONELLA TYPHIMURIUM, Strain/Indicator: TA1537, Metabolic Activation: RAT, LIVER, S-9, AROCLOR 1254, Method: STANDARD PLATE",active; positive
same,mutagenic call,"Test System: AMES SALMONELLA TYPHIMURIUM, Strain/Indicator: TA1537, Metabolic Activation: RAT, LIVER, S-9, Method: PREINCUBATION",active; positive
same,mutagenic call,"Test System: AMES SALMONELLA TYPHIMURIUM, Strain/Indicator: TA1538, Metabolic Activation: NONE, Method: STANDARD PLATE",inactive; negative
same,mutagenic call,"Test System: AMES SALMONELLA TYPHIMURIUM, Strain/Indicator: TA1538, Metabolic Activation: RAT, LIVER, S-9, AROCLOR 1254, Method: STANDARD PLATE",inactive; negative
same,mutagenic call,"Test System: AMES SALMONELLA TYPHIMURIUM, Strain/Indicator: TA2638, Metabolic Activation: S-9, Method: STANDARD PLATE",active; positive
same,mutagenic call,"Test System: E. COLI, Strain/Indicator: WP2 (PKM101), Metabolic Activation: RAT, LIVER, S-9, PHENOBARBITONE AND BETA-NAPHTHOFLAVONE, Method: STANDARD PLATE",inactive; negative
same,mutagenic call,"Test System: E. COLI, Strain/Indicator: WP2 (PKM101), Metabolic Activation: S-9, Method: STANDARD PLATE",inactive; negative
same,mutagenic call,"Test System: E. COLI, Strain/Indicator: WP2 UVRA (PKM101), Metabolic Activation: RAT, LIVER, S-9, PHENOBARBITONE AND BETA-NAPHTHOFLAVONE, Method: STANDARD PLATE",inactive; negative
same,mutagenic call,"Test System: E. COLI, Strain/Indicator: WP2 UVRA (PKM101), Metabolic Activation: S-9, Method: STANDARD PLATE",inactive; negative
Cn1c2ccccc2c2cc(N)ccc21,mutagenic call,[1],active; positive
same,mutagenic call,"Test System: AMES SALMONELLA TYPHIMURIUM, Strain/Indicator: TA98, Metabolic Activation: RAT LIVER S-9, AROCLOR 1254, Method: STANDARD PLATE",active; positive
same,mutagenic call,[2],active; positive
same,mutagenic call,"Test System: AMES SALMONELLA TYPHIMURIUM, Strain/Indicator: TA100, Metabolic Activation: RAT LIVER S-9, AROCLOR 1254, Method: STANDARD PLATE",active; positive
CCCCCCCCCCCCCCCCCCN,mutagenic call,"Test System: AMES SALMONELLA TYPHIMURIUM, Strain/Indicator: TA97, Metabolic Activation: HAMSTER, LIVER, S-9, AROCLOR 1254 (10 OR 30%), Method: PREINCUBATION",inactive; negative
same,mutagenic call,"Test System: AMES SALMONELLA TYPHIMURIUM, Strain/Indicator: TA97, Metabolic Activation: NONE, Method: PREINCUBATION",inactive; negative
same,mutagenic call,"Test System: AMES SALMONELLA TYPHIMURIUM, Strain/Indicator: TA97, Metabolic Activation: RAT, LIVER, S-9, AROCLOR 1254 (10 OR 30%), Method: PREINCUBATION",inactive; negative
same,mutagenic call,"Test System: AMES SALMONELLA TYPHIMURIUM, Strain/Indicator: TA98, Metabolic Activation: HAMSTER, LIVER, S-9, AROCLOR 1254 (10 OR 30%), Method: PREINCUBATION",inactive; negative
same,mutagenic call,[5],inactive; negative
same,mutagenic call,"Test System: AMES SALMONELLA TYPHIMURIUM, Strain/Indicator: TA98, Metabolic Activation: RAT LIVER S-9, PHENOBARBITAL AND BETA-NAPHTHOFLAVONE, Method: PREINCUBATION",inactive; negative
same,mutagenic call,"Test System: AMES SALMONELLA TYPHIMURIUM, Strain/Indicator: TA98, Metabolic Activation: RAT, LIVER, S-9, AROCLOR 1254 (10 OR 30%), Method: PREINCUBATION",inactive; negative
same,mutagenic call,"Test System: AMES SALMONELLA TYPHIMURIUM, Strain/Indicator: TA100, Metabolic Activation: HAMSTER, LIVER, S-9, AROCLOR 1254 (10 OR 30%), Method: PREINCUBATION",inactive; negative
same,mutagenic call,"Test System: AMES SALMONELLA TYPHIMURIUM, Strain/Indicator: TA100, Metabolic Activation: NONE, Method: PREINCUBATION",inactive; negative
same,mutagenic call,"Test System: AMES SALMONELLA TYPHIMURIUM, Strain/Indicator: TA100, Metabolic Activation: RAT LIVER S-9, PHENOBARBITAL AND BETA-NAPHTHOFLAVONE, Method: PREINCUBATION",inactive; negative
same,mutagenic call,"Test System: AMES SALMONELLA TYPHIMURIUM, Strain/Indicator: TA100, Metabolic Activation: RAT, LIVER, S-9, AROCLOR 1254 (10 OR 30%), Method: PREINCUBATION",inactive; negative
same,mutagenic call,"Test System: AMES SALMONELLA TYPHIMURIUM, Strain/Indicator: TA1535, Metabolic Activation: HAMSTER, LIVER, S-9, AROCLOR 1254 (10 OR 30%), Method: PREINCUBATION",inactive; negative
same,mutagenic call,"Test System: AMES SALMONELLA TYPHIMURIUM, Strain/Indicator: TA1535, Metabolic Activation: NONE, Method: PREINCUBATION",inactive; negative
same,mutagenic call,"Test System: AMES SALMONELLA TYPHIMURIUM, Strain/Indicator: TA1535, Metabolic Activation: RAT LIVER S-9, PHENOBARBITAL AND BETA-NAPHTHOFLAVONE, Method: PREINCUBATION",inactive; negative
same,mutagenic call,"Test System: AMES SALMONELLA TYPHIMURIUM, Strain/Indicator: TA1535, Metabolic Activation: RAT, LIVER, S-9, AROCLOR 1254 (10 OR 30%), Method: PREINCUBATION",inactive; negative
same,mutagenic call,[4],inactive; negative
same,mutagenic call,"Test System: AMES SALMONELLA TYPHIMURIUM, Strain/Indicator: TA1537, Metabolic Activation: RAT LIVER S-9, PHENOBARBITAL AND BETA-NAPHTHOFLAVONE, Method: PREINCUBATION",inactive; negative
same,mutagenic call,"Test System: E.COLI, Strain/Indicator: WP2UVRA/PKM101, Metabolic Activation: NONE, Method: PREINCUBATION",inactive; negative
same,mutagenic call,"Test System: E.COLI, Strain/Indicator: WP2UVRA/PKM101, Metabolic Activation: RAT LIVER S-9, PHENOBARBITAL AND BETA-NAPHTHOFLAVONE, Method: PREINCUBATION",inactive; negative
C[C@H](CCC(=O)O)[C@H]1CC[C@H]2[C@@H]3[C@H](O)C[C@@H]4C[C@H](O)CC[C@]4(C)[C@H]3C[C@H](O)[C@]12C,mutagenic call,[5],inactive; negative
same,mutagenic call,"Test System: AMES SALMONELLA TYPHIMURIUM, Strain/Indicator: TA98, Method: PREINCUBATION",inactive; negative
same,mutagenic call,[2],inactive; negative
same,mutagenic call,[3],inactive; negative
